Test results published in paper PMC6452685, “Lysyl-tRNA synthetase as a drug target in malaria and cryptosporidiosis” (Proceedings of the National Academy of Sciences of the …, 2019).
Like-named read-outs stand apart in the source and are kept apart here.

Columns and labels:
[1] = test system: Plasmodium falciparum 3D7; test: P. falciparum 3D7 growth inhibition (SYBR green I); type: cell-based; settings: for EC50: Plasmodium falciparum, P. falciparum 3D7 bloodstream, read-out: Pf(3D7) EC50
From the text: (§1) 3.2 Cytotoxicity Studies (Dundee)
(§2) In vi t ro cy totox i ci ty s tudies can be ca rri ed out us i ng Hep G 2 (Human C aucas i an hepatocy te ca rci noma, ECACC cat. no. 850 114 30) us ed as i ndi cators f or g eneral mammal i an cel l tox i ci ty . […]
(§3) 3.3 In vitro Cell Assay D ata Analysis (Du ndee) […]
(§4) as 0%. Qual i ty control c ri teri a for passi ng pl ates were as fol l ow s : Z’ > 0.
(§5) < 15 . T he f ormula used to calculate Z’ is 1- 3´ (St D e v _ hi gh + St D e v_ low) . […]
(§6) Al l EC50 Curve fitti ng was undertaken usi ng XLFi t versi on 4.2 usi ng Model 205 wi th the foll owi ng 4 paramet ri c equat i on: A + (?-A) ,where A=% i nhi bi ti on at bo ttom, B=% i nhi bi ti on at top, C= EC , […]
(§7) D= slope, x= inhibitor concentration a nd y= % inhibition. […]
was fixed to 100 only when at least 50% of inhibition was reached.

[2] = target: PfKRS1 (Plasmodium falciparum, UniProt Q8IDJ8); test: Recombinant KRS thermal shift assay, PfKRS1; type: binding; set-up: recombinant PfKRS1 (77–583 and 80–583); 6xHis (N); made in house; host or cells: E. coli Rosetta BL21(DE3), vector pAVA0421; settings: 40 µM inhibitor
Method: 2.9 Recombin ant KR S thermal shift assays ( UW)
Recombi nant PfKRS1, CpKRS, and HsKRS were di l u ted to 4 µM in assay buffe r c ontaining 20 mM Tris-HC l pH 8, 200 mM NaC l , 5 mM DTT, 5 mM MgC l2 and l i gands (1 mM lysi ne; 40 µM ATP; and 40 µM inhibitors) in various combinations. Ali quot s (10 µl) were added to a 96-well PCR plate and incubated at ambi ent temperature for 15 mi n. SYPRO® Ora n g e dye (I nv itrog en) was di l uted i n ass ay buffer to a 5x concent rat i on a nd 1 0 µl was added to t he P C R pl at e t o bri ng t he fi nal as s ay v ol ume t o 20 µl. The pl at e w as s eal ed and pul s e cent ri fug ed t o cons ol i dat e t he as s ay mix t ure and remov e ai r bu bbl es .
Us i ng a StepOne Pl us RT-PCR thermal cycler (Ap plied Biosystems) to monitor fluorescence at a n excitation/emission wavelength of 300/470-570 nm, the samples were heated from 25° C to 99° C at a ramp rate of .016° C/sec. Graphpa d® P rism software (GraphPad S oftware, San Diego, CA) was used to determine melting temperatures (Tm) us i ng Bol tzmann s i g moi dal analys is .
Table S3. Thermal shift data for compounds with P fKRS1, Cp KRS a nd Hs KRS.
Com poun d Eff ects o n Lys R S M elti ng Tem pe ratu re ( ∆Tm) […]

[3] = test system: HepG2 cells; test: HepG2 cytotoxicity; type: cell-based; settings: Homo sapiens
From the text: as §1, §2, §3, §4, §5, §6, §7
was fixed to 100 only when at least 50% of inhibition was reached. […]

[4] = CHI logD; type: physicochemical; settings: reversed-phase HPLC (Luna C18 column), pH 7.4
Method: targets. Thi s can be determi ned by ei ther l og D or Log P measurements, whi ch are tradi ti onal ly qui te time consuming and require quite large amounts of com pound to determine accurately.
The CHI Log D assay, fi rst descri bed by Valkό et a l. (17), has been adapt ed and perfo rmed at pH 7. […] An ali quot (10 µl) i s then i njected onto a Luna C18 col umn (Phenomenex, Maccl esfi el d, UK, 4.6 x 150 mm) wi th 5 µ m pa rti cl e size. Mobil e phase A (MPA) i s 50 mM ammoni um acetate (pH 7.4) and mobi l e Phase B (MPB) i s MeCN. The LC system used was a Dionex Ultimate 3000 HLPC where 10 0% MPA was hel d for the i ni ti al 1.5 mi n of the run, then a l i near gradi ent to 0% MPA takes pl ace over the next 10 mi n bef ore being held there fo r a furthe r 2. 5 mi n bef ore re-eq uilibration back to 100% MPA at 14 min with data collection continuing until 1 5 mi n. Flow rate was 1 ml/mi n w i t h det ecti on at 25 4 nm U V and ambi ent t emperat ure.
The ret ent i on t i me (t R) of t he unk nown drug is interpolated from the slope and intercept created us i ng ret ent i on t i mes of s t andard mi x t ure c o mponent s cont ai ni ng paracet amol , t heophy l l i ne, caffei ne, benzi mi dazol e, col chi ci ne, carbamazepi ne, i ndol e, propi ophenone, b uty rophen one , valerophenone and hepatophenone (prepared at 10 µg/ml in MeCN:water [1/1, by v ol ume]), w hi ch cov ers the C HI l og D rang e from -1 t o 4. […]
4.4 Int r ins ic C le ar ance (CLi) experiments
The mous e an d h uman c ry opres erv ed he pat ocy t es w ere s uppl i ed by Xenot ech (bat ches M C 53 9 n a HUE50H ). The procedure was carried out as reported prev i ous l y (15). […] Immediately, at time zero, then at 3, 6, 9, 15 and 30 min an aliquot ( 50 μl) o f the i ncubati on mi x ture was remov ed and mi x ed with acetonitrile (100 μl) contai ni ng i nternal s tandard to stop the reaction. […] XLfi t software (I DBS, Guildford UK) was used to cal cul ate the exponenti al decay and consequentl y the rate cons tant (ke-1) from the rati o of peak area of tes t compou nd to i nternal s tandard at each ti me poi nt . […]

[5] = read-out: ΔTm PfKRS, ATP + Lysine
[6] = read-out: ΔTm PfKRS, no substrate

Sequence of PfKRS1 (Q8IDJ8 77-583): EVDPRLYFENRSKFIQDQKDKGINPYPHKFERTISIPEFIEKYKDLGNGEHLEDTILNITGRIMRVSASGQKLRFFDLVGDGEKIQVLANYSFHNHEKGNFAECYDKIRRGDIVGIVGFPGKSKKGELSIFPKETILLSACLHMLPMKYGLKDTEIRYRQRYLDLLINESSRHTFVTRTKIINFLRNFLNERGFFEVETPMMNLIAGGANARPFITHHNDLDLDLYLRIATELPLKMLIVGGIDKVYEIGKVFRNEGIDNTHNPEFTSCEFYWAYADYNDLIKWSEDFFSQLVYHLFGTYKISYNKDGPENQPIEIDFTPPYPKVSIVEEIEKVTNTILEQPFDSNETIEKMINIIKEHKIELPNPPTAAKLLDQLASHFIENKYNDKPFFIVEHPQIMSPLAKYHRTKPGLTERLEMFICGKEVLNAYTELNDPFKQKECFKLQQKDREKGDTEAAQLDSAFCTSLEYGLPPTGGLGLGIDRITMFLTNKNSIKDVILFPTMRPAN

Row | Compound | EC50 [1] [nM] | ΔTm at 40 µM ([2]; ATP + Lysine, read-out: ΔTm PfKRS) [°C] | ΔTm at 40 µM ([2]; ATP, read-out: ΔTm PfKRS) [°C] | ΔTm at 40 µM ([2]; Lysine, read-out: ΔTm PfKRS) [°C] | ΔTm at 40 µM ([2]; no substrate, read-out: ΔTm PfKRS) [°C] | EC50 [3] [nM] | chromatographic logD [4] | ΔTm at 40 µM [2, 5] [°C] | ΔTm at 40 µM ([2]; read-out: ΔTm PfKRS, ATP) [°C] | ΔTm at 40 µM ([2]; read-out: ΔTm PfKRS, Lysine) [°C] | ΔTm at 40 µM [2, 6] [°C] | cellular selectivity between P. falciparum parasites and human HepG2 cells [1] [fold]
1 | C[C@H]1CCC[C@H](C[C@H]2Cc3cc(O)cc(O)c3C(=O)O2)O1 [Compound 1, cladosporin, reference compound] | 73 | 7.2 | 3.5 | 9.3 | 3.4 | > 50000 | 2.4 |  |  |  |  | 
2 | O=C(NCC1(O)CCCCC1)c1cc(=O)c2cc(F)ccc2o1 [Compound 4] | 180 |  |  |  |  | 32000 |  | 5.1 | 0.5 | 7.5 | 0.9 | 
3 | O=C(NCC1CCCCC1)c1cc(=O)c2cc(F)ccc2o1 [Compound 3] | 290 |  |  |  |  | > 50000 |  | 2.4 | 0.2 | 5.3 | 0.5 | 
4 | O=C(NCC1(O)CCC(F)(F)CC1)c1cc(=O)c2cc(F)ccc2o1 [Compound 5] | 270 |  |  |  |  | 49000 | 1.7 | 5.3 | 0.9 | 7.5 | 1.3 | 180
5 | O=C(NCC1CCCCC1)c1cc(=O)c2ccccc2o1 [Compound 2] | 190 |  |  |  |  | > 50000 | 2.9 | 5.1 | 0.9 | 7.4 | 1.2 | 
